According to patent publication US20170058264A1, “FORMATION OF MULTICELLULAR TUMOROIDS AND USES THEREOF” (UNIVERSITY OF SOUTH FLORIDA, priority 2014, published 2017):

How the values were obtained:
Type in all cases: cell-based
[1] = test system: BT-474 SCTs; experiment: Lapatinib response of BT-474 SCTs cultured on Matrigel or FiSS, Presto Blue cell viability; conditions: 3 d old SCTs; examined after 72 hrs
Experimental: Cells (3×10^3) were cultured on a layer of Matrigel coated plate in the presence of growth medium supplemented with 10% Matrigel. Three days after culture, cells were treated with indicated concentrations of Lapatinib and examined after 72 hrs. Spheroids were stained with calcein AM and examined by fluorescent microscope.
To benchmark FiSS-tumoroids against Matrigel-based 3D-culture for prediction of clinical efficacy, 3 d old BT-474 SCTs (cultured on Matrigel or FiSS) were treated with Lapatinib and examined tumoroid formation (FIGS. 26A-26D) and cell viability (FIGS. 27A-27B). Although Matrigel induced numerous smaller size tumoroids compared to FiSS tumoroids, their response to Lapatinib was similar as shown in FIGS. 27A-27B.

[2] = test system: BT474 tumoroids; experiment: VEGF, IL-6 and TGF-β1 in day 5 culture supernatants of BT474 tumoroids by ELISA; conditions: co-cultured tumoroids; Lapatinib about 2.5 μM-5 μM; day 5 supernatants
Experimental: BT474 tumoroids were monocultured or co-cultured in the presence or absence of Lapatinib (2.5-10 μM) and the levels of VEGF, IL-6, and TGF-β1 in the day 5 culture supernatants were determined by ELISA. * p<0.05.
To identify and evaluate the biomarkers of clinical efficacy, both monoculture and co-culture tumoroids were treated with increasing concentrations of Lapatinib (about 0 to about 10 μM). Five days after culture, the supernatants of the culture were tested for levels of VEGF, IL-6, and TGF-β. […] BT474 tumoroids were mono-cultured or co-cultured in the presence or absence of Lapatinib (2.5-10 μM) and the levels of VEGF, IL-6, and TGF-β1 in the day 5 culture supernatants were determined by ELISA. * p<0.05.

[3] = target: BT474 co-cultured tumoroids; experiment: Ki-67 expression by immunohistochemistry and tumoroid formation in Lapatinib treated BT474 tumoroids; conditions: 72 hours
Experimental: Ki-67 can be used as a surrogate marker of clinical efficacy in cancer trials. Expression of Ki-67. Monoculture and Co-culture tumoroids were treated with increasing concentrations of Lapatinib (0-10 μM). Tumoroids were fixed and immunostained for […].

[4] = test system: BT474 tumoroids (SCTs and MCTs); experiment: Quantibody Array (multiplexed sandwich ELISA) of factors in day 5 culture supernatants of BT474 SCTs and MCTs
Experimental: BT474 tumoroids (SCTs, blue bars and MCTs, red bars) were cultured in the presence or absence of Lapatinib (0.5-12.5 μM), as in FIGS. 9A-9B, and the levels of IL-6, IL-8, MCP-1 in the day 5 culture supernatants were determined by Sandwich ELISA (FIGS. 20-21). * p<0.05.
BT474 tumoroids (SCTs, blue bars and MCTs, red bars) were cultured in the presence or absence of Lapatinib (0.5-12.5 μM), as in FIGS. 9A-9B, and the levels of PDGF-BB, DKK-1, OPG in the day 5 culture supernatants were determined by Sandwich ELISA (FIGS. 20-21). * p<0.05.
BT474 tumoroids (SCTs, blue bars and MCTs, red bars) were cultured in the presence or absence of Lapatinib (0.5-12.5 μM), as in FIGS. 9A-9B, and the levels of MMP-3 in the day 5 culture supernatants were determined by Sandwich ELISA (FIGS. 20-21). * p<0.05.
Additionally, to characterize factors and molecules released in SCTs and MCTs culture, a human Quantibody Array (RayBiotech Inc.), which utilizes a multiplexed sandwich ELISA assay and enables detection of multiple proteins/factors simultaneously, was used. […] This list includes adhesion molecules (E-selectin, ICAM-1, P-Cadherin, VE-cadherin), \growth factors (aFGF, activin A, […] (AR), bFGF, bone morphogenic protein (BMP)-2, BMP-4, BMP-6, BMP-7, BMP-9, dickkopf-1 (DKK-1), IGF-1, osteoprotegerin (OPG), osteopontin (OPN), PDGF-BB, TGFβ1, TGFβ2, TGFβ3), chemokines (monocyte chemotactic protein 1 (MCP-1)), macrophage inflammatory protein (MIP)-1α, VCAM-1), cytokines (IL-1α, IL-1β, IL-6, IL-8, IL-11, IL-17, M-CSF), receptor activator of NFkB (RANK), osteoactivin, SDF-1α, TNF related activation induced cytokine (TRANCE)) and matrix metalloproteinases (MMPs), such as MMP-2, -3, -9, -13.
To determine whether any of these factors are expressed in SCTs and MCTs, we incubated QAH-BMA-1000 array with a pool of culture supernatants of BT474-SCTs and MCTs in quadruplets. Experiments were conducted using manufacturer's protocol. An appropriate positive control was used to normalize the signal intensity. […] These include, growth factors, such as PDGF-BB, OPG and DKK-1, chemokine such as MCP-1, IL-6 and IL-8, and protease MMP-3 (see e.g. FIGS. 23A-25.)
Lapatinib treated cultures were examined for factors that are found differentially expressed in MCTs, compared to SCTs.

[5] = target: BT474 tumoroids; experiment: High-content analysis (Operetta) of Ki-67 immunostaining in BT474 tumoroids; conditions: different concentrations of Lapatinib; about 72 hrs
Experimental: Quantification of immunostaining was completed using Operetta.
To optimize quantification of high content imaging for BT474 tumoroids were incubated for 72 h and then imaged on the Operetta HCI System with a 20× objective. Single plane z-stacked images of BT474 tumoroids on scaffolds were stained with DAPI and images were acquired using the Operetta high content imaging system from Perkin Elmer. Representative fields were selected at 20× magnification and z-stacks of these fields were acquired with an interval of 2 um between each z-plane. Z-stacks were analyzed using the image processing software ImageJ (NIH). […] Using HCA we have quantified changes in Ki-67 expression in BT474 tumoroids treated with different concentrations of Lapatinib.

[6] = test system: HCC1569 tumoroids; experiment: Lapatinib response of HCC1569 tumoroids in monoculture or co-culture, cell viability by PrestoBlue assay; conditions: HCC1569 cultured in the presence of ECs and CAFs vs monoculture
Experimental: (§1) On day 2 after culturing, cells were treated with the indicated concentrations (μM) of Lapatinib for about 72 hours. Cell viability was measured by PrestoBlue® assay.
(§2) The sensitivity of tumoroids derived from monoculture or co-culture of BT474 and HCC1569 to Lapatinib was examined. Lapatinib is a dual small molecule tyrosine kinase inhibitor targeting EGFR and HER2. […] Similar results were obtained when established tumoroids were treated with Lapatinib.

[7] = test system: BT474 tumoroids; experiment: Lapatinib response of BT474 tumoroids in monoculture or co-culture, cell viability by PrestoBlue assay; conditions: Homo sapiens, BT-474, 72 h, about 72 hours
Experimental: as §1, §2

[8] = MCTs, Lapatinib 0.5-12.5 μM, dose dependent

CS(=O)(=O)CCNCc1ccc(-c2ccc3ncnc(Nc4ccc(OCc5cccc(F)c5)c(Cl)c4)c3c2)o1 [Lapatinib]
response to Lapatinib (cell viability), Matrigel vs FiSS tumoroids [1]: similar
secretion of IL-6 [2]: significantly decreased
secretion of TGF-β [2]: significantly decreased
secretion of VEGF [2]: significantly decreased
Ki-67 staining ([3]; Lapatinib 2.5 μM): completely abrogated
tumoroid formation ([3]; Lapatinib 2.5 mM as printed): inhibited tumoroid formation
reduction of MCP-1 expression ([4]; MCTs, 12.5 uM Lapatinib): ≤ 50%
DKK-1 expression ([4]; MCTs, Lapatinib 0.5-12.5 μM): reduced significantly
MMP-3 expression ([4]; MCTs, Lapatinib 0.5-12.5 μM): reduced only marginally
IL-6 in culture supernatants [4, 8]: reduced to basal level
IL-8 in culture supernatants [4, 8]: reduced to basal level
PDGF-BB expression ([4]; SCTs and MCTs, Lapatinib 0.5-12.5 μM): did not alter
MCP-1 expression ([4]; SCTs, Lapatinib 0.5-12.5 μM): abolished MCP-1 expression completely
Ki-67 expression (relative intensity, HCA) [5]: dose-dependent Ki-67 expression
resistance to Lapatinib [6]: increase in resistance
IC50 ([7]; BT474 cells cultured on 2D or FiSS (monoculture)): < 2.5 µM
IC50 ([7]; MCTs, in the presence of ECs and CAFs): > 10 µM
